Data: patent US7101902B2, “2-guanidinylimidazolidinedione compounds and methods of making and using thereof” (The United States of America as represented by the …, priority 2003, dated 2006)
“And” between values parts separate entries of the source, which are not always exact repeats. Equal values may be shown once. “Also recorded” adds a separate entry of the source.

How the values were obtained:
Plasmodium yoelii (17×) = test: Sporozoite induced test in mouse (causal prophylactic activity); type: in vivo; details: sporozoite challenged CD-1 mice; single dose 4 hours before inoculation; oral administration
Description: The causal prophylactic antimalarial activity of the new carbamate derivatives were assessed in a sporozoites challenged mouse model according to the following protocol and the results are shown in Table 4 and Table 5.
Each compound was ground with a mortar and pestle and suspended in 0.5% hydroxyethylcellulose and 0.1% Tween 80 for compounds to be administered PO and those given SC were suspended in peanut oil. Each compound is prepared at 3 different dose levels.
Compounds were administered either PO or SC to mice once 4 hours before inoculation of sporozoites.
Four-week-old male CD-1 mice, purchased from Charles River and weighing about 16 to about 17 grams were placed 5 per cage and allowed to acclimate for 4 days before being treated and then inoculated with sporozoites. They were fed food and water ad-lib and maintained at 76° F. with 12 hour light and 12 hour darkness. The cages and water bottles were changed biweekly. The mice are weighed on Days 0, 3 and 6 then biweekly when blood films were taken.
Plasmodium yoelii (17×) was used to infect mice that will be used to infect the mosquitoes.
Mice were given a single dose of test compound 4 hours before being inoculated intraperitoneally with 2.5×10^5 sporozoites of Plasmodium yoelii on Day 0. Whole body weights were taken on Day 0 and Day 6 then twice a week for 31 days. A blood film was taken on Day 5 and then twice a week for 31 days. Mice loosing greater than about 20% of their body weight were sacrificed. All mice alive on Day 31 with no parasites in a blood film were considered cured. Donor mice used to infect the mosquitoes were infected with 2.5×10^4 parasitized erythrocytes. The mosquitoes were allowed to feed on these malaria-infected mice on Day 4 of their infection when the parasitemia was low.
A compound was considered active against either the sporozoite or the EE stage if no parasites were found in the blood films taken on Day 5 or on subsequent blood films taken weekly for 31 days.
Mice alive on Day 31 with no parasites found in any blood films were considered cured.

[1] = Solubility and characteristics of the compounds in the dosing vehicle; type: physicochemical
P. cynomolgi sporozoites [2] = test: Oral causal prophylactic assay in Rhesus monkey (compound 3 IM; 4b and 3c PO); type: in vivo, Plasmodium cynomolgi; details: per monkey
Description: To test the causal prophylactic intramuscular potency of the purified isomer of compound 3 and oral potency of two carbamate derivatives of 2-guanidinylimidazolidinedione (4b and 3c) the following assay was conducted.
Fourteen rhesus monkeys were issued.
A donor monkey was inoculated intravenously with 1.3 ml, freshly-thawed frozen infected red blood cell (DA310). When the monkey developed gametocytemia, mosquito feedings were conducted on days 15 and 16 after inoculation. The donor monkey was treated with intramuscular chloroquine hydrochloride (CQ) 10 mg/kg, once a day after the second mosquito feeding and continued for 6 days.
On day 0 of the beginning of the assay, each of the 14 monkeys was inoculated intravenously with 1-ml inoculum of suspension containing about 1.0×10^6 P. cynomolgi sporozoites harvested from Anopheles dirus mosquitoes' salivary glands previously fed on the donor monkey.
All monkeys received treatment on days −1, 0 and 1. The control monkeys (Group 1) received HECT orally and the experimental animals received testing compound intramuscularly (Groups 2 and 3) or orally (Groups 4 to 7).

P. cynomolgi sporozoites [3] = test: Causal prophylactic assay for intramuscular administration in Rhesus monkey; type: in vivo, Plasmodium cynomolgi
Description: The causal prophylactic antimalarial activity of the two 2-guanidinylimidazolidinedione carbamates 3c and 4b were assessed against Plasmodium cynomolgi in Rhesus monkey. Two monkeys were used in each test group. The average control animal developed parasitemia is about 10 days after inoculation of about 1×10^6 P. cynomolgi sporozoites harvested from Anopheles dirus.
In order to study the causal prophylactic activity of the 2-guanidinylimidazolidinedione compounds of the present invention, the following assay was conducted. Twelve rhesus monkeys were issued. The monkeys were randomized to 2 control animals and 5 groups of 2 experimental animals each.
A donor monkey was inoculated intravenously with 1.3 ml, freshly-thawed frozen infected red blood cells (DA310). The experiments were conducted in US Army oversea laboratory, AFRIMS, Bankoku, Thailand. When the donor monkey developed gametocytemia, mosquito feedings were conducted on days 13 and 14 after inoculation. The donor monkey was treated with intramuscular chloroquine hydrochloride (CQ) 10 mg/kg, once a day after the second mosquito feeding and continued for 7 days.
On day 0 (beginning of assay), each of the 12 monkeys was inoculated intravenously with 1-ml inoculum of suspension containing about 1.0×10^6 P. cynomolgi sporozoites harvested from Anopheles dirus mosquitoes' salivary glands previously fed on the donor monkey. See Corcoran, K D, et al. (1993) Am. J. Trop. Med. Hyg. 49:473–477, and Shanks, G D, et al. (2001) Clinical Infectious Diseases 33:1968–1974, which are herein incorporated by reference.
All monkeys received treatment on days −1, 0 and 1. The control monkeys received dimethylsulfoxide (DMSO) and the experimental animals received testing compound intramusculary.

CCOC(=O)N=C(N=C1NC(=O)C(=O)N1C(C)C)Nc1ccc(Cl)c(Cl)c1 [Compound 3a, N-(3,4-dichlorophenyl)-N′-ethoxycarbonyl-N″-(1-isopropyl-4,5-dioxo-imidazolidin-2-ylidene)-guanidine]
melting point: 257 °C
Minimum Protective Dose Against P. yoelii (Plasmodium yoelii (17×)): 2.5 mg/kg

CC(C)COC(=O)N=C(N=C1NC(=O)C(=O)N1C(C)C)Nc1ccc(Cl)c(Cl)c1 [Compound 3b, N-(3,4-dichlorophenyl)-N′-(isobutoxycarbonyl)-N″-(1-isopropyl-4,5-dioxo-imidazolidin-2-ylidene)-guanidine]
Minimum Protective Dose Against P. yoelii (Plasmodium yoelii (17×)): >40 mg/kg

CC(C)N1C(=O)C(=O)NC1=NC(=NC(=O)OC(C)(C)C)Nc1ccc(Cl)c(Cl)c1 [Compound 3c, N-(3,4-dichlorophenyl)-N′-(1-isopropyl-4,5-dioxoimidazolidin-2-ylidene)-N″-(tert-butoxycarbonyl)-guanidine]
Sediment ([1]; vehicle DMSO, dosage 10 mg/kg): None
Solubility ([1]; vehicle DMSO, dosage 10 mg/kg): Good
Sediment ([1]; vehicle DMSO, dosage 30 mg/kg): None
Solubility ([1]; vehicle DMSO, dosage 30 mg/kg): Good
Solubility ([1]; vehicle HECT, dosage 10 mg/kg): Moderate
Supernatant ([1]; vehicle HECT, dosage 10 mg/kg): Turbid
Solubility ([1]; vehicle HECT, dosage 30 mg/kg): Moderate
Supernatant ([1]; vehicle HECT, dosage 30 mg/kg): Turbid
Day of Parasitemia (P. cynomolgi sporozoites [2]; 10 mg/kg PO, 10 mg/kg): 9 days and 10 days
Result (delay the parasitemia) (P. cynomolgi sporozoites [2]; 10 mg/kg PO, 10 mg/kg): 2 days and 1 days
Day of Parasitemia (P. cynomolgi sporozoites [2]; 30 mg/kg PO, 30 mg/kg): 10 days and 11 days
Result (delay the parasitemia) (P. cynomolgi sporozoites [2]; 30 mg/kg PO, 30 mg/kg): 3 days and 2 days
Minimum Protective Dose Against P. yoelii (Plasmodium yoelii (17×)): 40 mg/kg

CCCCCCOC(=O)N=C(N=C1NC(=O)C(=O)N1C(C)C)Nc1ccc(Cl)c(Cl)c1 [Compound 3e, N-(3,4-dichlorophenyl)-N′-(1-hexyloxycarbonyl)-N″-(1-isopropyl-4,5-dioxo-imidazolidin-2-ylidene)-guanidine]
Minimum Protective Dose Against P. yoelii (Plasmodium yoelii (17×)): 40 mg/kg

C=CCCOC(=O)N=C(N=C1NC(=O)C(=O)N1C(C)C)Nc1ccc(Cl)c(Cl)c1 [Compound 3g, N-(3,4-dichlorophenyl)-N′-(3-butenyloxycarbonyl)-N″-(1-isopropyl-4,5-dioxoimidazolidin-2-ylidene)-guanidine]
Minimum Protective Dose Against P. yoelii (Plasmodium yoelii (17×)): 160 mg/kg

CC(C)N1C(=O)C(=O)NC1=NC(=NC(=O)OCCOCc1ccccc1)Nc1ccc(Cl)c(Cl)c1 [Compound 3h, N-(3,4-dichloro-phenyl)-N′-(2-benzyloxyethoxycarbonyl)-N″-(1-isopropyl-4,5-dioxo-imidazolidin-2-ylidene)-guanidine]
Minimum Protective Dose Against P. yoelii (Plasmodium yoelii (17×)): 160 mg/kg

CC(C)NC(=N)NC1=NC(=O)C(=O)N1c1ccc(Cl)c(Cl)c1 [Compound 4, N-[1-(3,4-dichlorophenyl)-4,5-dioxo-4,5-dihydro-1H-imidazol-2-yl]-N′-isopropylguanidine]
melting point: 244 °C and 245 °C
Minimum Protective Dose Against P. yoelii (Plasmodium yoelii (17×)): 5 mg/kg

CC(C)COC(=O)N=C(N=C1NC(=O)C(=O)N1c1ccc(Cl)c(Cl)c1)NC(C)C [Compound 4b, N-[1-(3,4-dichlorophenyl)-4,5-dioxo-imidazolidin-2-ylidene]-N′-isopropyl-N″-(isobutyloxycarbonyl)guanidine]
Day of Parasitemia (P. cynomolgi sporozoites [3]; 10 mg/kg IM on days -1, 0 and 1, per monkey, 10 mg/kg): Parasitemia on day 47 and Parasite free on day 100 and 47 day and Remain parasite free
Result (causal prophylaxis = parasite free for 100 days after treatment) (P. cynomolgi sporozoites [3]; 10 mg/kg IM, 10 mg/kg): protected one monkey; also recorded: Causal prophylaxis; also recorded: Delay the parasitemia
Delay of parasitemia (P. cynomolgi sporozoites [3]; 10 mg/kg IM, the monkey not protected): 34 days
Day of Parasitemia (P. cynomolgi sporozoites [3]; 30 mg/kg IM on days -1, 0 and 1, per monkey, 30 mg/kg): stayed parasite free 100 days after treatment; also recorded: Parasite free on day 100; also recorded: Remain parasite free
Result (causal prophylaxis = parasite free for 100 days after treatment) (P. cynomolgi sporozoites [3]; 30 mg/kg IM, 30 mg/kg): protected; also recorded: Causal prophylaxis
Protective / prophylactic activity (in words) (P. cynomolgi sporozoites [3]; 10 and 30 mg/kg, intramuscular): partial to complete prophylactic activity; also recorded: protective activity
Sediment ([1]; vehicle DMSO, dosage 10 mg/kg): None
Solubility ([1]; vehicle DMSO, dosage 10 mg/kg): Good
Supernatant ([1]; vehicle DMSO, dosage 10 mg/kg): Clear
Supernatant ([1]; vehicle DMSO, dosage 30 mg/kg): Clear
Solubility ([1]; vehicle HECT, dosage 10 mg/kg): Moderate
Supernatant ([1]; vehicle HECT, dosage 10 mg/kg): Turbid
Solubility ([1]; vehicle HECT, dosage 30 mg/kg): Moderate
Supernatant ([1]; vehicle HECT, dosage 30 mg/kg): Turbid
Day of Parasitemia (P. cynomolgi sporozoites [2]; 10 mg/kg PO): 8 days
Result (delay the parasitemia) (P. cynomolgi sporozoites [2]; 10 mg/kg PO, 10 mg/kg): not protected; also recorded: No activity
Day of Parasitemia (P. cynomolgi sporozoites [2]; 30 mg/kg PO): 8 days
Result (delay the parasitemia) (P. cynomolgi sporozoites [2]; 30 mg/kg PO, 30 mg/kg): not protected; also recorded: No activity
Minimum Protective Dose Against P. yoelii (Plasmodium yoelii (17×)): 2.5 mg/kg

CC(C)NC(=NC(=O)OC(C)(C)C)N=C1NC(=O)C(=O)N1c1ccc(Cl)c(Cl)c1 [Compound 4c, N-[1-(3,4-dichlorophenyl)-4,5-dioxo-imidazolidin-2-ylidene]-N′-isopropyl-N″-(tert-butoxycarbonyl)guanidine]
Minimum Protective Dose Against P. yoelii (Plasmodium yoelii (17×)): 1.25 mg/kg

CCCCCCOC(=O)N=C(N=C1NC(=O)C(=O)N1c1ccc(Cl)c(Cl)c1)NC(C)C [Compound 4e, N-[1-(3,4-dichlorophenyl)-4,5-dioxo-imidazolidin-2-ylidene]-N′-isopropyl-N″-(1-hexyloxycarbonyl)guanidine]
Minimum Protective Dose Against P. yoelii (Plasmodium yoelii (17×)): 5 mg/kg

N=C(N=C1NC(=O)C(=O)N1c1ccc(Cl)c(Cl)c1)Nc1ccc(Cl)c(Cl)c1 [Compound 19, N-(3,4-dichlorophenyl)-N′-[1-(3,4-dichlorophenyl)-4,5-dioxo-imidazolidin-2-ylidene]-guanidine]
melting point: 220 °C

C[C@H]1[C@@H](O)O[C@@H]2O[C@@]3(C)CC[C@H]4[C@H](C)CC[C@@H]1[C@@]24OO3 [Dihyroartemisinin, reference compound]
Minimum Protective Dose Against P. yoelii (Plasmodium yoelii (17×)): 160 mg/kg

COc1cc(NC(C)CCCN)c2ncccc2c1 (stereo not drawn) [Primaquine, reference compound]
Minimum Protective Dose Against P. yoelii (Plasmodium yoelii (17×)): 40 mg/kg

COc1cc(C)c2c(Oc3cccc(C(F)(F)F)c3)c(OC)cc(NC(C)CCCN)c2n1 (stereo not drawn) [Tafenoguine, reference compound]
Minimum Protective Dose Against P. yoelii (Plasmodium yoelii (17×)): 2.5 mg/kg

N-(3,4-dichloro-phenyl)-N′-(5-methyl-2-oxo-1,3-dioxol-4-yl)methyl-N″-(1-isopropyl-4,5-dioxo-imidazolidin-2-ylidene)guanidine [Compound 3f]
Minimum Protective Dose Against P. yoelii (Plasmodium yoelii (17×)): >40 mg/kg

N-(3,4-dichlorophenyl)-N′-(benzyloxycarbonyl)-N″-(1-isopropyl-4,5-dioxo-imidazolidin-2-ylidene)-guanidine [Compound 3d]
Minimum Protective Dose Against P. yoelii (Plasmodium yoelii (17×)): >160 mg/kg
